Patent US6262046A, “Azetidinylpropylpiperidine derivatives, intermediates and use as tachykinin antagonists” (Pfizer Inc., priority 1997, dated 2001)

molecular target: T1, guinea pig cortex NK3 receptor (Cavia porcellus, UniProt P30098); experiment: in vitro affinity for the guinea pig cortex NK3 receptor (displacement of [^3 H] senktide); type: binding; details: displacement of [^3 H] senktide at guinea pig cortex NK3 receptor
T1 construct: guinea pig cortex NK3 receptor; from tissue; host or cells: guinea pig (brain) cortex, prepared by the cited method of Guard et al., Br. J. Pharmacol. (1990), 99, 767
T1 sequence (P30098 1-440): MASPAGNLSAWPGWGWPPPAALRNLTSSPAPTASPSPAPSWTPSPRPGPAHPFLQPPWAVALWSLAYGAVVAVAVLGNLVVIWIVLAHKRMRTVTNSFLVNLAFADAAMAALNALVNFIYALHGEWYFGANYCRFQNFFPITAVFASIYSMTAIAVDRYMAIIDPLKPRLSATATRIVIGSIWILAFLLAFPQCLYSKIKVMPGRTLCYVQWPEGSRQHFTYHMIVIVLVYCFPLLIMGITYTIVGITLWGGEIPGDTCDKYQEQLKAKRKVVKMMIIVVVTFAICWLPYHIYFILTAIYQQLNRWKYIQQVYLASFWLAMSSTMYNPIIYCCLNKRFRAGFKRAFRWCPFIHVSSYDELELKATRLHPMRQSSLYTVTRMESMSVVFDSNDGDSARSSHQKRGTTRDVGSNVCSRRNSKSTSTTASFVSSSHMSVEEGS
Description: The affinity of the compounds of formula (I) and their salts for the NK3 receptor can be tested in vitro by testing their ability to displace [^3 H] senktide at the guinea pig cortex NK3 receptor. The receptors are prepared by the method described by S. Guard, et al, in Br.J.Pharmacol. (1990), 99, 767.
The data below illustrates the in vitro affinity of substances of the invention for the guinea pig cortex NK3 receptor, which assays were carried out according to the method mentioned earlier on page 15.

| IC50 | SMILES |
| --- | --- |
| 1.58 nM | CS(=O)(=O)N1CCN(C2CN(CCC[C@]3(c4ccc(Cl)c(Cl)c4)CCCN(C(=O)c4ccccc4)C3)C2)CC1 [Example 3, (+)-3(R)-1-Benzoyl-3-(3,4-dichlorophenyl)-3-(3-[3-(4-methanesulphonylpiperazin-1-yl)azetidin-1-yl]propyl)piperidine] |
| 3.98 nM | CS(=O)(=O)N1CCN(C2CN(CCC[C@]3(c4ccc(Cl)c(Cl)c4)CCCN(C(=O)c4ccc(F)c(F)c4)C3)C2)CC1 [Example 17, (+)-3(R)-3-(3,4-Dichlorophenyl)-1-(3,4-difluorobenzoyl)-3-(3-[3-(4-methanesulphonylpiperazin-1-yl)azetidin-1-yl]propyl)piperidine] |
| 11.2 nM | CS(=O)(=O)N(c1ccccc1)C1CN(CCC[C@]2(c3ccc(Cl)c(Cl)c3)CCCN(C(=O)c3ccccc3)C2)C1 [Example 13] |
